Source: ChEMBL document CHEMBL2429808, “Synthesis, characterization, and cytotoxicity of N-2-hydroxyethyl-substituted azastigmastanes” (Med Chem Res, 2013)

Experiments:
Format in all cases: functional, cell-based
[1] = system: HepG2; assay: Cytotoxicity against human HepG2 cells after 96 hrs by MTT assay; settings: for IC50: HepG2, 96 h
[2] = system: MCF7; assay: Cytotoxicity against human MCF7 cells after 96 hrs by MTT assay; settings: for IC50: MCF7, 96 h
[3] = system: HCT-116; assay: Cytotoxicity against human HCT116 cells after 96 hrs by MTT assay; settings: for IC50: HCT-116, 96 h

Question: How did the Activity [1] turn out when CC[C@H](CC[C@@H](C)[C@H]1CC[C@H]2[C@@H]3CC(=O)N(CCO)[C@H]4CCCC[C@]4(C)[C@H]3CC[C@]12C)C(C)C was run?
Answer: Dose-dependent effect

Question: What about the IC50 [1] of the same compound?
Answer: 4.68 µM

Question: And the Activity [2]?
Answer: Dose-dependent effect

Question: What about the IC50 [2] of the same compound?
Answer: 2.98 µM

Question: And the Activity [3]?
Answer: Dose-dependent effect

Question: And the IC50 [3]?
Answer: 3.96 µM

Question: CC[C@H](CC[C@@H](C)[C@H]1CC[C@H]2[C@@H]3CC(=O)[C@H]4C[C@@H](Cl)CC[C@]4(C)[C@H]3CC[C@]12C)C(C)C was tested. Which IC50 [1] did it give?
Answer: 3.56 µM

Question: What about the IC50 [2] of the same compound?
Answer: 3.01 µM

Question: And the IC50 [3]?
Answer: 3.15 µM

Question: What does the source list for COc1cccc2c1C(=O)c1c(O)c3c(c(O)c1C2=O)C[C@@](O)(C(=O)CO)C[C@@H]3O[C@H]1C[C@H](N)[C@H](O)[C@H](C)O1 [DOXORUBICIN]?
Answer: IC50 [1]: 2.68 µM; IC50 [2]: 2.44 µM; IC50 [3]: 2.56 µM

Question: What does the source list for CC[C@H](CC[C@@H](C)[C@H]1CC[C@H]2[C@@H]3CC(=O)[C@H]4CCCC[C@]4(C)[C@H]3CC[C@]12C)C(C)C?
Answer: IC50 [1]: 5.22 µM; IC50 [2]: 3.34 µM; IC50 [3]: 4.51 µM

Question: CC[C@H](CC[C@@H](C)[C@H]1CC[C@H]2[C@@H]3CC(=O)[C@H]4C[C@@H](OC(C)=O)CC[C@]4(C)[C@H]3CC[C@]12C)C(C)C was tested. Which IC50 [1] did it give?
Answer: 4.87 µM

Question: What about the IC50 [2] of the same compound?
Answer: 3.54 µM

Question: And the IC50 [3]?
Answer: 5.02 µM

Question: Which Activity [1] does the source give for CC[C@H](CC[C@@H](C)[C@H]1CC[C@H]2[C@@H]3CC(=O)N(CCO)[C@H]4C[C@@H](OC(C)=O)CC[C@]4(C)[C@H]3CC[C@]12C)C(C)C here?
Answer: Dose-dependent effect

Question: What about the IC50 [1] of the same compound?
Answer: 4.52 µM

Question: And the Activity [2]?
Answer: Dose-dependent effect

Question: What about the IC50 [2] of the same compound?
Answer: 3.02 µM

Question: What about the Activity [3] of the same compound?
Answer: Dose-dependent effect

Question: And the IC50 [3]?
Answer: 4.24 µM

Question: How did the Activity [1] turn out when CC[C@H](CC[C@@H](C)[C@H]1CC[C@H]2[C@@H]3CC(=O)N(CCO)[C@H]4C[C@@H](Cl)CC[C@]4(C)[C@H]3CC[C@]12C)C(C)C was run?
Answer: Dose-dependent effect

Question: What about the IC50 [1] of the same compound?
Answer: 3.02 µM

Question: What about the Activity [2] of the same compound?
Answer: Dose-dependent effect

Question: What about the IC50 [2] of the same compound?
Answer: 2.55 µM

Question: And the Activity [3]?
Answer: Dose-dependent effect

Question: And the IC50 [3]?
Answer: 2.72 µM
